The source of these data is patent publication US9566290B2, “Boron-containing small molecules” (Anacor Pharmaceuticals, Inc., priority 2005, dated 2017).

In brackets after ≈: the same amount, converted by molar mass. Read-outs that look alike come from different tables or passages of the source.

Data set [1] concerns S. cerevisiae C10 resistant mutants (CDC60 editing domain mutations). Kind of data set: MIC (NCCLS M27), spontaneous and EMS induced C10 resistant mutants. In kind it is cell-based, Saccharomyces cerevisiae. The method, then: (§1) The haploid Saccharomyces cerevisiae strain ATCC 201388 was used in the selection of C10 resistant mutants. Spontaneous and EMS-induced resistant mutants were isolated from YPD agar plates containing 4×, 8×, 16×MIC of C10. All minimal inhibitory concentrations (MIC) were determined using NCCLS protocol M27 with the exception of using YPD or synthetic defined media. All yeast and molecular genetic manipulations were essentially performed as described by Guthrie C., et al., Methods in Enzymology, 350: Part B, (2002).
Resistant mutants appeared after 2 d incubation at 30° C. Frequency of resistance was determined by dividing the number of resistant mutants by the total number of cells plated as determined by plating dilutions of the overnight culture on YPD plates.
A 2.5 mL of the overnight culture, which was grown in YPD media, was centrifuged at 700×g for 5 minutes. The cell pellet was resuspended in 10 mL 50 mM potassium phosphate buffer, pH 7.0. The cell suspension was centrifuged again and the cell pellet was resuspended in phosphate buffer to obtain a cell density of 5×10^7 cells/mL as determined by counting the cells using a Petroff Hausser Counting Chamber (Horsham, Pa. USA). The cell suspension was shaken with 300 μL of EMS (Alfa Aesar, Ward Hill, Mass., USA) for 30 min. at 30° C. The mutagenesis was stopped by adding 10% (w/v) sodium thiosulfate (Sigma-Aldrich, St. Louis, Mo., USA), and the cells were pelleted by centrifugation at 700×g for 5 min. and resuspended in 1 mL sterile H2O. This was repeated once more before the cells were plated on YPD agar plates containing 1.6 μg/mL of C10.
(§2) The minimal inhibitory concentration (MIC) was essentially performed following the NCCLS guidelines outlined in the M27 protocol with the exception of using YPD or synthetic defined media (SDM).

Data set [2] relates to Saccharomyces cerevisiae strain ATCC 201388. Kind of data set: MIC (NCCLS M27, YPD or synthetic defined media), haploid parental strain. In kind it is cell-based. On the procedure: as §1, §2
Data set [3] has as its system S. cerevisiae ATCC201388 bearing pRS425 or CDC60 on pRS425. Kind of data set: MIC with over-expression of wild type CDC60. The format is cell-based, Saccharomyces cerevisiae. Particulars: Saccharomyces cerevisiae.
Excerpt: as §2
A 4.0 kb BamH I-Sal I DNA fragment containing the entire CDC60 open reading frame (ORF) and 700 bp of upstream sequence was amplified using KOD DNA polymerase, S. cerevisiae genomic DNA (Novagen, Madison, Wis., USA), and the primers GAGGGATCCGGTTAGTTTTAGTTCGCGAGTGACCTG and GAGGTCGACGATTTCTGGTTGCTGTTTATTGATCTT (Operon, Alameda, Calif., USA). This DNA fragment was then cloned into the […] multi-copy plasmid pRS425, and transformed into S. cerevisiae ATCC201388 (Gietz, R D et al., Methods in Enzymology 305: 87-96 (2002)).

The format of data set [4] is in vitro ADME, human. The method, then:
C10, 5-fluoro-1,3-dihydro-1-phenyl-2,1-benzoxaborole, C1, and 5-fluoro-1,3-dihydro-1-(3-hydroxymethylphenyl)-2,1-benzoxaborole, formulated at 10% w/v in ethanol, were tested. A single aliquot (10 μl) of each formulation was dosed to the top of human nail plates using the nail penetration procedure described below, and allowed to stand for 3-days. The dosed area was washed, and then the cotton ball bed supporting the nail and the nail samples were collected at the end of the incubation period, stored at 4° C. and analyzed for drug using LC/MS/MS.
Details of the nail incubation have been previously described^9, 10. […] The supporting cotton ball under the nail was wetted by normal saline providing moisture for the nail plate, and the degree of hydration was monitored and controlled during the experiment. […]
LC/MS/MS (API3000, Applied Biosystems, Foster City, Calif.) was used to quantitate the amounts of non-radiolabeled oxaboroles, C10, 5-fluoro-1,3-dihydro-1-phenyl-2,1-benzoxaborole, C1, and 5-fluoro-1,3-dihydro-1-(3-hydroxymethylphenyl)-2,1-benzoxaborole in samples from the nail penetration studies. […] After centrifugation, the filtrate from the cotton ball samples was transferred to autosampler vials and analyzed by LC/MS/MS. […]

Setting [5] is: Table 2, C10 resistant mutant (C).
The mark [6] stands for this setting: Table 2, C10 resistant mutant (G).
[7] abbreviates: Table 2, C10 resistant mutant (H).
The mark [8] stands for this setting: Saccharomyces cerevisiae, Table 2, C10 resistant mutant (C).
[9] abbreviates: Saccharomyces cerevisiae, Table 2, C10 resistant mutant (G).
Where [10] appears, read: Saccharomyces cerevisiae, Table 2, C10 resistant mutant (H).
Where [11] appears, read: Saccharomyces cerevisiae, ATCC201388, Table 2, ATCC201388, read-out: MIC.

As to `C[C@@H]([C@H](N)C(=O)N[C@H](C(=O)O)[C@H]1O[C@@H](n2ccc(=O)[nH]c2=O)[C@H](O)[C@@H]1O)[C@H](O)c1ccc(O)cn1` [Nikkomycin Z], the “resistance of C10 resistant mutants to other antifungals, in words” value (“resistance of C10 resistant mutants” below) in data set [1] is reported as “not resistant”. For the same compound, the “MIC” value was determined as 64 µg/mL (≈ 129 µM) in data set [1] (setting [5]); 64 µg/mL (≈ 129 µM) in data set [1] (setting [6]); 64 µg/mL (≈ 129 µM) in data set [1] (setting [7]); 64 µg/mL (≈ 129 µM) in data set [2] (Table 2, ATCC201388).
As for Tunicamycin, in data set [1], the “resistance of C10 resistant mutants” value is given as “not resistant”. The minimal inhibitory concentration (MIC) in data set [1] (setting [5]) stood at 8 µg/mL; in data set [1] (setting [6]), 8 µg/mL; in data set [1] (setting [7]), 8 µg/mL; in data set [2] (Table 2, ATCC201388), 8 µg/mL.
Regarding `C[C@@H]1[C@H](O)[C@@H](C)/C=C/C=C/C=C/C=C/C=C/C=C/C=C/[C@H](O[C@@H]2O[C@H](C)[C@@H](O)[C@H](N)[C@@H]2O)C[C@@H]2O[C@](O)(C[C@@H](O)C[C@@H](O)[C@H](O)CC[C@@H](O)C[C@@H](O)CC(=O)O[C@H]1C)C[C@H](O)[C@H]2C(=O)O` [Amphotericin B], the “resistance of C10 resistant mutants” value in data set [1] was “not resistant”. Further, the “MIC” value in data set [2] (Table 2, ATCC201388) was determined as 0.125 µg/mL (≈ 0.135 µM).
Regarding Aculeacin A, the “resistance of C10 resistant mutants” value in data set [1] is “not resistant”. For the same compound, the minimum inhibitory concentration (MIC) in data set [1] (setting [5]) was found to be 4 µg/mL; in data set [1] (setting [6]), 4 µg/mL; in data set [1] (setting [7]) it was 4 µg/mL; in data set [2] (Table 2, ATCC201388) it was 4 µg/mL.
For the compound `C[C@@H]1C[C@@H]([C@H](O)CC2CC(=O)NC(=O)C2)C(=O)[C@@H](C)C1` [Cyclohexamide], the “resistance of C10 resistant mutants” value in data set [1] is recorded as “not resistant”. Further, the “MIC” value was less than 0.06 µg/mL in data set [1] (setting [5]); less than 0.06 µg/mL in data set [1] (setting [6]); less than 0.06 µg/mL in data set [1] (setting [7]); less than 0.06 µg/mL in data set [2] (Table 2, ATCC201388).
Consider `CCC(C)n1ncn(-c2ccc(N3CCN(c4ccc(OCC5COC(Cn6cncn6)(c6ccc(Cl)cc6Cl)O5)cc4)CC3)cc2)c1=O` (stereo not drawn) [Itraconazole], for which the MIC in data set [1] (setting [8]), in data set [1] (setting [9]), in data set [1] (setting [10]) and in data set [2] (setting [11]) was 0.125 µg/mL (≈ 0.177 µM) each time.
Regarding `CN(C/C=C/C#CC(C)(C)C)Cc1cccc2ccccc12` [Terbinafine], in data set [1], the “resistance of C10 resistant mutants” value is given as “not resistant”. The minimal inhibitory concentration (MIC) in data set [1] (setting [8]), in data set [1] (setting [9]), in data set [1] (setting [10]) and in data set [2] (setting [11]) was 4 µg/mL (≈ 13.7 µM) in each case.
With `OC(Cn1cncn1)(Cn1cncn1)c1ccc(F)cc1F` [Fluconazole, reference compound], the MIC in data set [3] (ATCC201388, CDC60 on pRS425 (20 copies)) amounted to 2 µg/mL (≈ 6.53 µM); in data set [3] (ATCC201388, pRS425 Plasmid control), 2 µg/mL (≈ 6.53 µM).
Compound `OB1OCc2ccc(-n3cc(Sc4ccccc4)c4cc(Cl)ccc43)cc21` [C80, 6-(5-chloro-3-(phenylthio)-1H-indol-1-yl)benzo[c][1,2]oxaborol-1(3H)-ol] displayed a melting point of 145 to 151 °C.
Still for that read-out and setting: in the case of `COc1ccc(Sc2ccc3c(c2)B(O)OC3)cc1` [C32, 6-(4-methoxyphenylthio)benzo[c][1,2]oxaborol-1(3H)-ol] it was 95 to 100 °C.
As for `Fc1ccc2c(c1)COB2c1ccccc1` [Compound 3, 5-fluoro-1,3-dihydro-1-phenyl-2,1-benzoxaborole], the “penetration of the nail plate, in words” value in data set [4] is given as “penetrates the nail plate poorly”.
For the compound `C/C=C/C/C=C/CCC(=O)[C@H]1O[C@H]1C(N)=O` [Cerulenin], the “resistance of C10 resistant mutants” value in data set [1] is “not resistant”. Further, the MIC in data set [1] (Saccharomyces cerevisiae, Table 1, mutant (A), CDC60 N415D) amounted to 0.5 µg/mL (≈ 2.24 µM); in data set [1] (Saccharomyces cerevisiae, Table 1, mutant (B), CDC60 R316I) it was 0.5 µg/mL (≈ 2.24 µM); in data set [1] (Saccharomyces cerevisiae, Table 1, mutant (C), CDC60 C326F), 0.5 µg/mL (≈ 2.24 µM); in data set [1] (Saccharomyces cerevisiae, Table 1, mutant (D), CDC60 G405V) it was 0.5 µg/mL (≈ 2.24 µM); in data set [1] (Saccharomyces cerevisiae, Table 1, mutant (E), CDC60 C326R) it was 0.5 µg/mL (≈ 2.24 µM); in data set [1] (Saccharomyces cerevisiae, Table 1, mutant (F), CDC60 D487G) it was 0.5 µg/mL (≈ 2.24 µM). Further, the MIC was 0.5 µg/mL (≈ 2.24 µM) in data set [1] (Saccharomyces cerevisiae, Table 1, mutant (G), CDC60 L315V); 0.5 µg/mL (≈ 2.24 µM) in data set [1] (Saccharomyces cerevisiae, Table 1, mutant (H), CDC60 T314M); 1 µg/mL (≈ 4.48 µM) in data set [1] (Saccharomyces cerevisiae, Table 1, mutant (I), CDC60 S416L); 1 µg/mL (≈ 4.48 µM) in data set [1] (Saccharomyces cerevisiae, Table 1, mutant (J), CDC60 D487N); 1 µg/mL (≈ 4.48 µM) in data set [1] (Saccharomyces cerevisiae, Table 1, mutant (K), CDC60 T319I); 0.5 µg/mL (≈ 2.24 µM) in data set [1] (setting [8]). For the same compound, the MIC in data set [1] (setting [9]) worked out at 0.5 µg/mL (≈ 2.24 µM); in data set [1] (setting [10]), 0.5 µg/mL (≈ 2.24 µM); in data set [2] (Saccharomyces cerevisiae, ATCC201388, Table 1, haploid strain ATCC201388, read-out: MIC) it was 1 µg/mL (≈ 4.48 µM); in data set [2] (setting [11]) it was 0.5 µg/mL (≈ 2.24 µM).
`OB1OCc2cc(F)c(NCc3ccccc3)cc21` [C71, 6-(benzylamino)-5-fluorobenzo[c][1,2]oxaborol-1(3H)-ol] registered a melting point of 159 to 164 °C.
As to `Cc1ccc2c(c1)COB2O` [C8, 5-methylbenzo[c][1,2]oxaborol-1(3H)-ol], the melting point fell in the range of 124 to 128 °C.
`N#CCCSc1cn(-c2ccc3c(c2)B(O)OC3)c2ccc(Cl)cc12` [C76, 3-(5-chloro-1-(1-hydroxy-1,3-dihydrobenzo[c][1,2]oxaborol-6-yl)-1H-indol-3-ylthio)propanenitrile]: the melting point was more than 225 °C.
Still for that read-out and setting: in the case of `OB1OCc2ccc(N3CCN(c4ccccc4)CC3)cc21` [C53, 6-(4-phenylpiperazin-1-yl)benzo[c][1,2]oxaborol-1(3H)-ol] it was 159 to 161 °C.
